Source: US20170275330A1, “POLYMORPHIC FORMS OF AN OXYSTEROL AND METHODS OF MAKING THEM” (Warsaw Orthopedic, Inc., priority 2016, published 2017)
≈ marks a conversion by molar mass, not a printed value.

How the values were obtained:
[1] = Karl-Fisher (KF) water determination of isolated solid; format: physicochemical; conditions: for KF (water content determined by Karl Fischer water determination method): OXY133 sample, method/solvent system, processing point, temperature and time as in the table row; for KF (Wt %) water content of isolated solid: solid isolated from acetone/water slurry at 0, 10 or 25° C.
From the text: Further, Table 8 below is a list of OXY133 polymorphs Forms A, B, C, D, E, F, G, H and I identified by a high performance liquid chromatography (HPLC) followed by charged aerosol detector (CAD) method. Table 4 also lists the starting products, the solvent system including solvent and anti-solvent, the temperature at which a polymorph was formed, the water content of the polymorph as determined by the Karl-Fisher (KF) method of water determination, and where available the yield and purity of the resulting polymorph.

[2] = X-ray powder diffraction (XRPD) identification of the crystal form; format: physicochemical; conditions: OXY133 sample, method/solvent system
From the text: The many crystalline forms obtained by subjecting a slurry of OXY133 to different conditions of re-slurrying, recrystallizing from different solvent systems at different temperatures may be identified by many analytical methods, for example, XRPD, HPLC-CAD, DSC-TGA and others known in the art. In certain embodiments, the OXY133 polymorphs may be characterized, at least in part, by X-ray Powder Diffraction (XRPD). In particular, crystalline solids produce a distinctive diffraction pattern of peaks, represented in what is referred to as a diffractogram. The peak assignments for a given crystalline material, for example, degree 2θ values, may vary slightly, depending on the instrumentation used to obtain the diffractogram and certain other factors, for example, sample preparation. Nevertheless, these variations should not be more than +/−0.2 degrees 2θ and the relative spacing between the peaks in the diffractogram will always be the same, regardless of the instrumentation used or the method of sample preparation, and the like.
The equipment utilized to collect the XRPD patterns depicted in FIGS. 2A-13B was a Bruker D8 Advance diffractometer using Cu radiation (40 kV, 25 mA) with a divergence slit of 0.3° (0.6 mm), wherein variable slits must be operated in fixed mode. The axial Soller slits, primary and secondary were each set at 2.5°. The anti-scatter slit was set at 0.3° (0.6 mm). The secondary monochromator anti-scatter slit was set at 1 mm and the detector slit at 0.1 mm. If a secondary monochromator is not used, then a suitable […] must be used, namely a Ni filter for Cu radiation. The linear detector LYNXEYE was set at 30 detector opening with the angle scanned from 2 to 45° 2Θ.

physchem = conditions: acetone, organic solvent or mixture, thermodynamic from solid
[3] = Solubility of OXY133 Form B in organic solvents; conditions: ambient temperature of about 20° C.
[4] = for stability in the acetone/water solvent system: acetone/water slurry
[5] = DSC/TGA (differential scanning calorimetry and thermo-gravimetric analysis); format: physicochemical; conditions: isolated solid of Example 6
Experimental: Differential scanning calorimetry (DSC) and thermo-gravimetric analysis (TGA) were also collected for some of the OXY133 polymorphs. The equipment utilized to collect the DSC/TGA data was a Mettler Toledo DSC 2 equipped with an aluminum 40 μL crimped pan with a pin hole and the ramp rate was 10° C./min. DSC/TGA thermograms identifying several OXY133 polymorphs are illustrated in FIGS. 20-25.

[6] = Stability of the crystal form on drying in a vacuum oven; format: physicochemical; conditions: drying at temperatures above about 20° C. to about 30° C.
Experimental: 2.0 g anhydrous OXY133 was added to 10 mL isopropanol in a 100 mL polyblock reactor. The mixture was heated to 30° C. and then stirred at 30° C. for 45 minutes until the solids were dissolved completely. Acceptable heating temperatures ranged from 25° C. to 35° C. A polish filtration step can be added after dissolving the anhydrous OXY133. The mixture of anhydrous OXY133 and isopropanol was then cooled to 5° C. 20 mL of water was then added to the cooled mixture over 120 minutes at 5° C., resulting in the formation of a precipitate approximately one third of the way through the addition of water. The water addition can also be done in temperature ranges from about 0° C. to about 20° C. with no significant effect on the crystal structure. The resulting mixture of OXY133, isopropanol and water was then stirred at 5° C. for 18 hours. However, it is recommended that the resulting mixture could be mixed for at least 2 hours at 5° C. after the water addition was complete to ensure that all solids were precipitated from the solution. A white solid was collected by rapidly filtering the mixture and then washing the solid with 2.0 mL of an isopropanol:water mixture in a ratio of 1:2 v/v. The filtered and washed solids were then dried in a vacuum oven at 20′C. Acceptable temperatures for drying can range from about 20° C. to about 30′C.

[7] = Table 8, processing point (slurry/solid/after drying), temperature and time as in the table row
[8] = Table 9, processing point, temperature

Compound	KF (water content determined by Karl Fischer water determination method) [1] [%]	KF (Wt %) water content of isolated solid [1] [Wt %]	Crystal Form (XRPD) [2, 7]	Crystal Form (XRPD) [2, 8]	other results
CCCCCC[C@](C)(O)[C@H]1CC[C@H]2[C@@H]3C[C@H](O)[C@H]4C[C@@H](O)CC[C@]4(C)[C@H]3CC[C@@]21C [Form 2891-8-3]	3.25	3.25	Form A	Form A	
CCCCCC[C@](C)(O)[C@H]1CC[C@H]2[C@@H]3C[C@H](O)[C@H]4C[C@@H](O)CC[C@]4(C)[C@H]3CC[C@@]21C [Form 2891-9-3]	3.83	3.83	Form A	Form A	
CCCCCC[C@](C)(O)[C@H]1CC[C@H]2[C@@H]3C[C@H](O)[C@H]4C[C@@H](O)CC[C@]4(C)[C@H]3CC[C@@]21C [Form 2891-10-3]	4.02	4.02	Form A	Form A	
CCCCCC[C@](C)(O)[C@H]1CC[C@H]2[C@@H]3C[C@H](O)[C@H]4C[C@@H](O)CC[C@]4(C)[C@H]3CC[C@@]21C [Form B]					solubility (physchem; 20 °C): ~10 mg/mL (≈ 23.8 mM); solubility (physchem; 56 °C): ~80 mg/mL (≈ 190 mM); solubility in isopropanol (IPA) ([3]; isopropanol): good; solubility in tetrahydrofuran ([3]; tetrahydrofuran): good
CCCCCC[C@](C)(O)[C@H]1CC[C@H]2[C@@H]3C[C@H](O)[C@H]4C[C@@H](O)CC[C@]4(C)[C@H]3CC[C@@]21C [Form C]					stability in the acetone/water solvent system [4]: fairly stable; conversion from Form C to Form A or Form B ([4]; slurry stirred at about 20° C. in acetone/water): no conversion
CCCCCC[C@](C)(O)[C@H]1CC[C@H]2[C@@H]3C[C@H](O)[C@H]4C[C@@H](O)CC[C@]4(C)[C@H]3CC[C@@]21C [Form F]					stability in the acetone/water solvent system [4]: somewhat stable; conversion to any other polymorph forms ([4]; acetone/water system, stirred at about 20° C. or about 5° C.): would not convert
CCCCCC[C@](C)(O)[C@H]1CC[C@H]2[C@@H]3C[C@H](O)[C@H]4C[C@@H](O)CC[C@]4(C)[C@H]3CC[C@@]21C.O [OXY133 Monohydrate, (3S,5S,6S,8R,9S,10R,13S,14S,17S)-17-((S)-2-hydroxyoctan-2-yl)-10,13-dimethylhexadecahydro-1H-cyclopenta[a]phenanthrene-3,6-diol, monohydrate]					KF water content ([1]; isolated solid of Example 6 (IPA/water 1:2, 5° C., dried at 20° C.)): 4.07%; DSC/TGA [5]: 4.76%; crystal form stability on drying [6]: slow conversion
